{"source": "the supplement of paper PMC10307832", "experiment_in_all_cases": "relative viability (nuclei count vs DMSO), 5 days (fraction); higher = more cells survive", "key": {"[1]": {"system": "A549", "in_short": "(§1)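 The day after seeding in 1536-well plates, lung cancer cell lines were treated by pin tool with a single drug, or with a fixed anchor-drug dose together with five library-drug doses (not always all listed) in √10 steps. After 5 days, a combined fix-and-stain solution (final 0.05% Triton X-100, 1% formaldehyde, 1 ug/ml Hoechst) was added. Nuclei counted on 4× images gave relative viability as treated counts over vehicle counts, reported as the median of duplicate plates.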"}, "[2]": {"system": "Calu-6", "in_short": "as §1"}, "[3]": {"system": "EBC-1", "in_short": "as §1"}, "[4]": {"system": "IA-LM", "in_short": "as §1"}, "[5]": {"system": "NCI-H1299", "in_short": "as §1"}, "[6]": {"system": "NCI-H1703", "in_short": "as §1"}, "[7]": {"system": "NCI-H1993", "in_short": "as §1"}, "[8]": {"system": "NCI-H23", "in_short": "as §1"}, "[9]": {"system": "NCI-H596", "in_short": "as §1"}}, "data": [{"smiles": "NC(=O)Nc1cc(-c2cccc(F)c2)sc1C(=O)N[C@H]1CCCNC1", "note": "[AZD7762] + CS(=O)(=O)N1CCN(Cc2cc3nc(-c4cccc5[nH]ncc45)nc(N4CCOCC4)c3s2)CC1 [Pictilisib] (partner 1 µM)", "values": [{"measurement": "relative viability", "setting": "[1]; first compound 0.01 µM", "value": 0.548}, {"measurement": "relative viability", "setting": "[1]; first compound 0.03162 µM", "value": 0.587}, {"measurement": "relative viability", "setting": "[1]; first compound 0.1 µM", "value": 0.641}, {"measurement": "relative viability", "setting": "[1]; first compound 0.3162 µM", "value": 0.368}, {"measurement": "relative viability", "setting": "[1]; first compound 1 µM", "value": 0.107}, {"measurement": "relative viability", "setting": "[2]; first compound 0.01 µM", "value": 0.882}, {"measurement": "relative viability", "setting": "[2]; first compound 0.03162 µM", "value": 0.875}, {"measurement": "relative viability", "setting": "[2]; first compound 0.1 µM", "value": 0.691}, {"measurement": "relative viability", "setting": "[2]; first compound 0.3162 µM", "value": 0.17}, {"measurement": "relative viability", "setting": "[2]; first compound 1 µM", "value": 0.113}, {"measurement": "relative viability", "setting": "[3]; first compound 0.01 µM", "value": 0.429}, {"measurement": "relative viability", "setting": "[3]; first compound 0.03162 µM", "value": 0.447}, {"measurement": "relative viability", "setting": "[3]; first compound 0.1 µM", "value": 0.375}, {"measurement": "relative viability", "setting": "[3]; first compound 0.3162 µM", "value": 0.28}, {"measurement": "relative viability", "setting": "[3]; first compound 1 µM", "value": 0.166}, {"measurement": "relative viability", "setting": "[4]; first compound 0.01 µM", "value": 0.48}, {"measurement": "relative viability", "setting": "[4]; first compound 0.03162 µM", "value": 0.456}, {"measurement": "relative viability", "setting": "[4]; first compound 0.1 µM", "value": 0.538}, {"measurement": "relative viability", "setting": "[4]; first compound 0.3162 µM", "value": 0.48}, {"measurement": "relative viability", "setting": "[4]; first compound 1 µM", "value": 0.0832}, {"measurement": "relative viability", "setting": "[5]; first compound 0.01 µM", "value": 0.98}, {"measurement": "relative viability", "setting": "[5]; first compound 0.03162 µM", "value": 0.882}, {"measurement": "relative viability", "setting": "[5]; first compound 0.1 µM", "value": 0.622}, {"measurement": "relative viability", "setting": "[5]; first compound 0.3162 µM", "value": 0.248}, {"measurement": "relative viability", "setting": "[5]; first compound 1 µM", "value": 0.116}, {"measurement": "relative viability", "setting": "[6]; first compound 0.01 µM", "value": 0.234}, {"measurement": "relative viability", "setting": "[6]; first compound 0.03162 µM", "value": 0.252}, {"measurement": "relative viability", "setting": "[6]; first compound 0.1 µM", "value": 0.224}, {"measurement": "relative viability", "setting": "[6]; first compound 0.3162 µM", "value": 0.189}, {"measurement": "relative viability", "setting": "[6]; first compound 1 µM", "value": 0.129}, {"measurement": "relative viability", "setting": "[7]; first compound 0.01 µM", "value": 0.823}, {"measurement": "relative viability", "setting": "[7]; first compound 0.03162 µM", "value": 0.925}, {"measurement": "relative viability", "setting": "[7]; first compound 0.1 µM", "value": 0.717}, {"measurement": "relative viability", "setting": "[7]; first compound 0.3162 µM", "value": 0.725}, {"measurement": "relative viability", "setting": "[7]; first compound 1 µM", "value": 0.704}, {"measurement": "relative viability", "setting": "[8]; first compound 0.01 µM", "value": 0.56}, {"measurement": "relative viability", "setting": "[8]; first compound 0.03162 µM", "value": 0.533}, {"measurement": "relative viability", "setting": "[8]; first compound 0.1 µM", "value": 0.446}, {"measurement": "relative viability", "setting": "[8]; first compound 0.3162 µM", "value": 0.358}, {"measurement": "relative viability", "setting": "[8]; first compound 1 µM", "value": 0.228}, {"measurement": "relative viability", "setting": "[9]; first compound 0.01 µM", "value": 0.405}, {"measurement": "relative viability", "setting": "[9]; first compound 0.03162 µM", "value": 0.411}, {"measurement": "relative viability", "setting": "[9]; first compound 0.1 µM", "value": 0.487}, {"measurement": "relative viability", "setting": "[9]; first compound 0.3162 µM", "value": 0.454}, {"measurement": "relative viability", "setting": "[9]; first compound 1 µM", "value": 0.389}]}, {"smiles": "Oc1nc(-c2ccc(C(F)(F)F)cc2)nc2c1CSCC2", "note": "[XAV939] + CC(C)C[C@H](NC(=O)[C@H](Cc1ccccc1)NC(=O)c1cnccn1)B(O)O [Bortezomib] (partner 0.002 µM)", "values": [{"measurement": "relative viability", "setting": "[2]; first compound 0.08 µM", "value": 0.936}, {"measurement": "relative viability", "setting": "[2]; first compound 0.253 µM", "value": 0.978}, {"measurement": "relative viability", "setting": "[2]; first compound 0.8 µM", "value": 1.05}, {"measurement": "relative viability", "setting": "[2]; first compound 2.53 µM", "value": 0.978}, {"measurement": "relative viability", "setting": "[3]; first compound 0.08 µM", "value": 0.589}, {"measurement": "relative viability", "setting": "[3]; first compound 0.253 µM", "value": 0.478}, {"measurement": "relative viability", "setting": "[3]; first compound 0.8 µM", "value": 0.584}, {"measurement": "relative viability", "setting": "[3]; first compound 2.53 µM", "value": 0.476}, {"measurement": "relative viability", "setting": "[4]; first compound 0.08 µM", "value": 0.736}, {"measurement": "relative viability", "setting": "[4]; first compound 0.253 µM", "value": 0.617}, {"measurement": "relative viability", "setting": "[4]; first compound 0.8 µM", "value": 0.607}, {"measurement": "relative viability", "setting": "[4]; first compound 2.53 µM", "value": 0.487}, {"measurement": "relative viability", "setting": "[5]; first compound 0.08 µM", "value": 1.06}, {"measurement": "relative viability", "setting": "[5]; first compound 0.253 µM", "value": 0.996}, {"measurement": "relative viability", "setting": "[5]; first compound 0.8 µM", "value": 1.07}, {"measurement": "relative viability", "setting": "[5]; first compound 2.53 µM", "value": 1.05}, {"measurement": "relative viability", "setting": "[6]; first compound 0.08 µM", "value": 0.451}, {"measurement": "relative viability", "setting": "[6]; first compound 0.253 µM", "value": 0.417}, {"measurement": "relative viability", "setting": "[6]; first compound 0.8 µM", "value": 0.293}, {"measurement": "relative viability", "setting": "[6]; first compound 2.53 µM", "value": 0.285}, {"measurement": "relative viability", "setting": "[7]; first compound 0.8 µM", "value": 0.972}, {"measurement": "relative viability", "setting": "[7]; first compound 2.53 µM", "value": 0.891}, {"measurement": "relative viability", "setting": "[8]; first compound 0.08 µM", "value": 0.992}, {"measurement": "relative viability", "setting": "[8]; first compound 0.253 µM", "value": 1.12}, {"measurement": "relative viability", "setting": "[8]; first compound 0.8 µM", "value": 0.989}, {"measurement": "relative viability", "setting": "[8]; first compound 2.53 µM", "value": 0.886}, {"measurement": "relative viability", "setting": "[9]; first compound 0.08 µM", "value": 1.11}, {"measurement": "relative viability", "setting": "[9]; first compound 0.253 µM", "value": 1.1}, {"measurement": "relative viability", "setting": "[9]; first compound 0.8 µM", "value": 1.09}, {"measurement": "relative viability", "setting": "[9]; first compound 2.53 µM", "value": 1.3}]}, {"smiles": "C=C1C(=O)O[C@@H](CCCCCCCC)[C@@H]1C(=O)O", "note": "[C-75] + CC(C)C[C@H](NC(=O)[C@H](Cc1ccccc1)NC(=O)c1cnccn1)B(O)O [Bortezomib] (partner 0.002 µM)", "values": [{"measurement": "relative viability", "setting": "[2]; first compound 0.08 µM", "value": 1.01}, {"measurement": "relative viability", "setting": "[2]; first compound 0.253 µM", "value": 1.16}, {"measurement": "relative viability", "setting": "[2]; first compound 0.8 µM", "value": 1.02}, {"measurement": "relative viability", "setting": "[2]; first compound 2.53 µM", "value": 0.92}, {"measurement": "relative viability", "setting": "[2]; first compound 8 µM", "value": 0.855}, {"measurement": "relative viability", "setting": "[3]; first compound 0.08 µM", "value": 0.57}, {"measurement": "relative viability", "setting": "[3]; first compound 0.253 µM", "value": 0.512}, {"measurement": "relative viability", "setting": "[3]; first compound 0.8 µM", "value": 0.498}, {"measurement": "relative viability", "setting": "[3]; first compound 2.53 µM", "value": 0.505}, {"measurement": "relative viability", "setting": "[3]; first compound 8 µM", "value": 0.221}, {"measurement": "relative viability", "setting": "[4]; first compound 0.08 µM", "value": 0.79}, {"measurement": "relative viability", "setting": "[4]; first compound 0.253 µM", "value": 0.61}, {"measurement": "relative viability", "setting": "[4]; first compound 0.8 µM", "value": 0.728}, {"measurement": "relative viability", "setting": "[4]; first compound 2.53 µM", "value": 0.736}, {"measurement": "relative viability", "setting": "[4]; first compound 8 µM", "value": 0.428}, {"measurement": "relative viability", "setting": "[5]; first compound 0.08 µM", "value": 1.07}, {"measurement": "relative viability", "setting": "[5]; first compound 0.253 µM", "value": 0.932}, {"measurement": "relative viability", "setting": "[5]; first compound 0.8 µM", "value": 1.01}, {"measurement": "relative viability", "setting": "[5]; first compound 2.53 µM", "value": 1.02}, {"measurement": "relative viability", "setting": "[5]; first compound 8 µM", "value": 1.07}, {"measurement": "relative viability", "setting": "[6]; first compound 0.08 µM", "value": 0.506}, {"measurement": "relative viability", "setting": "[6]; first compound 0.253 µM", "value": 0.435}, {"measurement": "relative viability", "setting": "[6]; first compound 0.8 µM", "value": 0.31}, {"measurement": "relative viability", "setting": "[6]; first compound 2.53 µM", "value": 0.292}, {"measurement": "relative viability", "setting": "[6]; first compound 8 µM", "value": 0.192}, {"measurement": "relative viability", "setting": "[7]; first compound 0.08 µM", "value": 0.951}, {"measurement": "relative viability", "setting": "[7]; first compound 0.253 µM", "value": 1.24}, {"measurement": "relative viability", "setting": "[7]; first compound 0.8 µM", "value": 1.08}, {"measurement": "relative viability", "setting": "[7]; first compound 2.53 µM", "value": 0.54}, {"measurement": "relative viability", "setting": "[7]; first compound 8 µM", "value": 1.09}, {"measurement": "relative viability", "setting": "[8]; first compound 0.08 µM", "value": 0.953}, {"measurement": "relative viability", "setting": "[8]; first compound 0.253 µM", "value": 1.07}, {"measurement": "relative viability", "setting": "[8]; first compound 0.8 µM", "value": 0.962}, {"measurement": "relative viability", "setting": "[8]; first compound 2.53 µM", "value": 0.865}, {"measurement": "relative viability", "setting": "[8]; first compound 8 µM", "value": 0.696}, {"measurement": "relative viability", "setting": "[9]; first compound 0.08 µM", "value": 1.18}, {"measurement": "relative viability", "setting": "[9]; first compound 0.253 µM", "value": 1.18}, {"measurement": "relative viability", "setting": "[9]; first compound 0.8 µM", "value": 0.871}, {"measurement": "relative viability", "setting": "[9]; first compound 2.53 µM", "value": 0.996}, {"measurement": "relative viability", "setting": "[9]; first compound 8 µM", "value": 0.988}]}]}
